Read-outs that look alike come from different tables or passages of the source.

The target of the experiment is T1, Human BCL-XL protein (N-terminal HiBiT tagged BCL-XL in HT1080 cells) (Homo sapiens, UniProt Q07817).
T1 construct: expressed in transfected cells; host or cells: HT-1080 (ATCC CCL-121), stably transduced with lentivirus pLV-UBC-N-HiBiT-BCL-XL-PGK-puro and selected with puromycin
Kind of experiment: HiBiT based degradation assay. The experiment is classed as cell-based. The conditions noted are these: HT1080 cells expressing HiBiT-BCL-XL; for Ymin (24 h) / Ymin (6 h): BCL-XL degradation normalized with DMSO control; for DC50: BCL-XL degradation. The procedure, abridged: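 HT1080 cells stably transduced by lentivirus with N-terminally HiBiT-tagged human BCL-XL and kept under 1 μg/mL puromycin selection were seeded at three thousand cells per well in 40 μL RPMI 1640 into 384-well plates pre-spotted with compounds across a concentration range. Luminescence was read on a PHERAstar FSX, normalized to DMSO, and fitted with a four-parameter logistic model.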
In general terms: The HiBiT peptide binds its large partner to form an active luciferase.

T1 sequence (Q07817 whole entry): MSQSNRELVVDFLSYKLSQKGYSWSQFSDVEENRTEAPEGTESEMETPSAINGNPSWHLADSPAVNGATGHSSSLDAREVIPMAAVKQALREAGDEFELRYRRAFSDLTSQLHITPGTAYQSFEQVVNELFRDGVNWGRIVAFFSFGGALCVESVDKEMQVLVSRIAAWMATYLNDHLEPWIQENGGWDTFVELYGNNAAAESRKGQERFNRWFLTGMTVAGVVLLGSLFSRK

In the case of `Cc1c(OCC[C@@H](C)C2CCN(CC(=O)Nc3ccc4c(C5CCC(=O)NC5=O)nn(C)c4c3)CC2)cccc1-c1ccc(N2CCc3cccc(C(=O)Nc4nc5ccccc5s4)c3C2)nc1C(=O)O` (stereo partly drawn) [Compound 167a, 6-[8-(1,3-benzothiazol-2-ylcarbamoyl)-3,4-dihydro-1H-isoquinolin-2-yl]-3-[3-[(3R)-3-[1-[2-[[3-(2,6-dioxo-3-piperidyl)-1-methyl-indazol-6-yl]amino]-2-oxo-ethyl]-4-piperidyl]butoxy]-2-methyl-phenyl]pyridine-2-carboxylic acid], the “Ymin (24 h)” value (24 h) was “A (Ymin < 50%)”. The DC50 (24 h, read-out: EC50 (24 h)) was below 100 nM.

For `Cc1c(OCC[C@H](C)C2CCN(CC(=O)Nc3ccc4c(C5CCC(=O)NC5=O)nn(C)c4c3)CC2)cccc1-c1ccc(N2CCc3cccc(C(=O)Nc4nc5ccccc5s4)c3C2)nc1C(=O)O` (stereo partly drawn) [Compound 167b, 6-[8-(1,3-benzothiazol-2-ylcarbamoyl)-3,4-dihydro-1H-isoquinolin-2-yl]-3-[3-[(3S)-3-[1-[2-[[3-(2,6-dioxo-3-piperidyl)-1-methyl-indazol-6-yl]amino]-2-oxo-ethyl]-4-piperidyl]butoxy]-2-methyl-phenyl]pyridine-2-carboxylic acid], the “Ymin (24 h)” value (24 h) is listed as “B (50% ≤ Ymin < 70%)”. Further, the DC50 (24 h, read-out: EC50 (24 h)) was below 100 nM.

Regarding `Cc1c(O[C@H]2CC[C@H](CC(F)(F)CN3CCN(c4cccc5c(C6CCC(=O)NC6=O)nn(C)c45)CC3)CC2)cccc1-c1ccc(N2CCc3cccc(C(=O)Nc4nc5ccccc5s4)c3C2)nc1C(=O)O` (stereo partly drawn) [Compound 168a, 6-(8-(benzo[d]thiazol-2-ylcarbamoyl)-3,4-dihydroisoquinolin-2(1H)-yl)-3-(3-(((1r,4r)-4-(3-(4-(3-(2,6-dioxopiperidin-3-yl)-1-methyl-1H-indazol-7-yl)piperazin-1-yl)-2,2-difluoropropyl)cyclohexyl)oxy)-2-methylphenyl)picolinic acid], the “Ymin (24 h)” value (24 h) was “B (50% ≤ Ymin < 70%)”. In addition, the DC50 (24 h, read-out: EC50 (24 h)) was below 100 nM.

For the compound `Cc1c(O[C@@H](C)CCC2CCN(CC(=O)Nc3cccc4c(C5CCC(=O)NC5=O)nn(C)c34)CC2)cccc1-c1ccc(N2CCc3cccc(C(=O)Nc4nc5ccccc5s4)c3C2)nc1C(=O)O` (stereo partly drawn) [Compound 169a, 6-[8-(1,3-benzothiazol-2-ylcarbamoyl)-3,4-dihydro-1H-isoquinolin-2-yl]-3-[3-[(1S)-3-[1-[2-[[3-(2,6-dioxo-3-piperidyl)-1-methyl-indazol-7-yl]amino]-2-oxo-ethyl]-4-piperidyl]-1-methyl-propoxy]-2-methyl-phenyl]pyridine-2-carboxylic acid], the “Ymin (6 h)” value (6 h) was “B (50% ≤ Ymin < 70%)”. Besides, the “Ymin (24 h)” value (24 h) was “B (50% ≤ Ymin < 70%)”. Moreover, the DC50 is 100 to 1000 nM (6 h, read-out: EC50 (6 h)) and below 100 nM (24 h, read-out: EC50 (24 h)).

For the compound `Cc1c(O[C@H](C)CCC2CCN(CC(=O)Nc3cccc4c(C5CCC(=O)NC5=O)nn(C)c34)CC2)cccc1-c1ccc(N2CCc3cccc(C(=O)Nc4nc5ccccc5s4)c3C2)nc1C(=O)O` (stereo partly drawn) [Compound 169b, 6-[8-(1,3-benzothiazol-2-ylcarbamoyl)-3,4-dihydro-1H-isoquinolin-2-yl]-3-[3-[(1R)-3-[1-[2-[[3-(2,6-dioxo-3-piperidyl)-1-methyl-indazol-7-yl]amino]-2-oxo-ethyl]-4-piperidyl]-1-methyl-propoxy]-2-methyl-phenyl] pyridine-2-carboxylic acid], the “Ymin (6 h)” value (6 h) is “C (Ymin ≥ 70%)”. Also, the “Ymin (24 h)” value (24 h) is “B (50% ≤ Ymin < 70%)”. Further, the DC50 (6 h, read-out: EC50 (6 h)) was below 100 nM and the DC50 (24 h, read-out: EC50 (24 h)) was below 100 nM.

Take `Cc1c(OCC(F)(F)CC2CCN(CC(=O)Nc3cccc4c(C5CCC(=O)NC5=O)nn(C)c34)CC2)cccc1-c1ccc(N2CCc3cccc(C(=O)Nc4nc5ccccc5s4)c3C2)nc1C(=O)O` (stereo not drawn) [Compound 170, 6-[8-(1,3-benzothiazol-2-ylcarbamoyl)-3,4-dihydro-1H-isoquinolin-2-yl]-3-[3-[3-[1-[2-[[3-(2,6-dioxo-3-piperidyl)-1-methyl-indazol-7-yl]amino]-2-oxo-ethyl]-4-piperidyl]-2,2-difluoro-propoxy]-2-methyl-phenyl]pyridine-2-carboxylic acid]: the “Ymin (24 h)” value (24 h) is “B (50% ≤ Ymin < 70%)”. The DC50 (24 h, read-out: EC50 (24 h)) fell in the range of 100 to 1000 nM.

`Cc1c(O[C@H]2CC[C@H](CC(F)(F)C(=O)N3CCN(c4cccc5c(C6CCC(=O)NC6=O)nn(C)c45)CC3)CC2)cccc1-c1ccc(N2CCc3cccc(C(=O)Nc4nc5ccccc5s4)c3C2)nc1C(=O)O` (stereo partly drawn) [Compound 171a, 6-(8-(benzo[d]thiazol-2-ylcarbamoyl)-3,4-dihydroisoquinolin-2(1H)-yl)-3-(3-(((1r,4r)-4-(3-(4-(3-(2,6-dioxopiperidin-3-yl)-1-methyl-1H-indazol-7-yl)piperazin-1-yl)-2,2-difluoro-3-oxopropyl)cyclohexyl)oxy)-2-methylphenyl)picolinic acid]: the “Ymin (24 h)” value (24 h) is “B (50% ≤ Ymin < 70%)”. Moreover, where the note is “24 h, read-out: EC50 (24 h)”, the DC50 lay within 100 to 1000 nM.

Take `Cc1c(OCCCC2CCN(CCCOc3ccc4c(C5CCC(=O)NC5=O)nn(C)c4c3)CC2)cccc1-c1ccc(N2CCc3cccc(C(=O)Nc4nc5ccccc5s4)c3C2)nc1C(=O)O` (stereo not drawn) [Compound 172, 6-(8-(benzo[d]thiazol-2-ylcarbamoyl)-3,4-dihydroisoquinolin-2(1H)-yl)-3-(3-(3-(1-(3-((3-(2,6-dioxopiperidin-3-yl)-1-methyl-1H-indazol-6-yl)oxy)propyl)piperidin-4-yl)propoxy)-2-methylphenyl)picolinic acid]: the “Ymin (6 h)” value (6 h) is “C (Ymin ≥ 70%)”. The “Ymin (24 h)” value (24 h) was “A (Ymin < 50%)”. Further, the DC50 by setting is: (6 h, read-out: EC50 (6 h)) 100 to 1000 nM; (24 h, read-out: EC50 (24 h)) below 100 nM.

On to `Cc1c(OCC[C@H](C)C2CCN(CC(=O)Nc3cccc4c(C5CCC(=O)NC5=O)nn(C)c34)CC2)cccc1-c1ccc(N2CCc3cccc(C(=O)Nc4nc5ccccc5s4)c3C2)nc1C(=O)O` (stereo partly drawn) [Compound 173a, 6-(8-(benzo[d]thiazol-2-ylcarbamoyl)-3,4-dihydroisoquinolin-2(1H)-yl)-3-(3-((3S)-3-(1-(2-((3-(2,6-dioxopiperidin-3-yl)-1-methyl-1H-indazol-7-yl)amino)-2-oxoethyl)piperidin-4-yl)butoxy)-2-methylphenyl)picolinic acid], for which the “Ymin (24 h)” value (24 h) is on record as “B (50% ≤ Ymin < 70%)”. Moreover, the DC50 (24 h, read-out: EC50 (24 h)) is below 100 nM.

Turning to `Cc1c(OCC[C@@H](C)C2CCN(CC(=O)Nc3cccc4c(C5CCC(=O)NC5=O)nn(C)c34)CC2)cccc1-c1ccc(N2CCc3cccc(C(=O)Nc4nc5ccccc5s4)c3C2)nc1C(=O)O` (stereo partly drawn) [Compound 173b, 6-[8-(1,3-benzothiazol-2-ylcarbamoyl)-3,4-dihydro-1H-isoquinolin-2-yl]-3-[3-[(3R)-3-[1-[2-[[3-(2,6-dioxo-3-piperidyl)-1-methyl-indazol-7-yl]amino]-2-oxo-ethyl]-4-piperidyl]butoxy]-2-methyl-phenyl]pyridine-2-carboxylic acid], under “24 h”, the “Ymin (24 h)” value is recorded as “B (50% ≤ Ymin < 70%)”. Besides, the DC50 (24 h, read-out: EC50 (24 h)) lay in the range of 100 to 1000 nM.

`Cc1c(OCCO[C@H]2C[C@H]3CC[C@@H](C2)N3CC(=O)Nc2ccc3c(C4CCC(=O)NC4=O)nn(C)c3c2)cccc1-c1ccc(N2CCc3cccc(C(=O)Nc4nc5ccccc5s4)c3C2)nc1C(=O)O` (stereo partly drawn) [Compound 174a, 6-(8-(benzo[d]thiazol-2-ylcarbamoyl)-3,4-dihydroisoquinolin-2(1H)-yl)-3-(3-(2-(((1R,3r,5S)-8-(2-((3-(2,6-dioxopiperidin-3-yl)-1-methyl-1H-indazol-6-yl)amino)-2-oxoethyl)-8-azabicyclo[3.2.1]octan-3-yl)oxy)ethoxy)-2-methylphenyl)picolinic acid]: the “Ymin (24 h)” value (24 h) was “A (Ymin < 50%)”. Also, the DC50 (24 h, read-out: EC50 (24 h)) is below 100 nM.

For the compound `Cc1c(OCCO[C@@H]2C[C@H]3CC[C@@H](C2)N3CC(=O)Nc2ccc3c(C4CCC(=O)NC4=O)nn(C)c3c2)cccc1-c1ccc(N2CCc3cccc(C(=O)Nc4nc5ccccc5s4)c3C2)nc1C(=O)O` (stereo partly drawn) [Compound 174b, 6-(8-(benzo[d]thiazol-2-ylcarbamoyl)-3,4-dihydroisoquinolin-2(1H)-yl)-3-(3-(2-(((1R,3s,5S)-8-(2-((3-(2,6-dioxopiperidin-3-yl)-1-methyl-1H-indazol-6-yl)amino)-2-oxoethyl)-8-azabicyclo[3.2.1]octan-3-yl)oxy)ethoxy)-2-methylphenyl)picolinic acid], for the setting “6 h”, the “Ymin (6 h)” value is reported as “C (Ymin ≥ 70%)”. The “Ymin (24 h)” value (24 h) is “B (50% ≤ Ymin < 70%)”. Moreover, the DC50 (6 h, read-out: EC50 (6 h)) lay in the range of 100 to 1000 nM and the DC50 (24 h, read-out: EC50 (24 h)) was below 100 nM.

In the case of `Cc1c(Oc2ccc(CCCCN3CCN(c4cccc5c(C6CCC(=O)NC6=O)nn(C)c45)CC3)cc2)cccc1-c1ccc(N2CCc3cccc(C(=O)Nc4nc5ccccc5s4)c3C2)nc1C(=O)O` (stereo not drawn) [Compound 175, 6-(8-(benzo[d]thiazol-2-ylcarbamoyl)-3,4-dihydroisoquinolin-2(1H)-yl)-3-(3-(4-(4-(4-(3-(2,6-dioxopiperidin-3-yl)-1-methyl-1H-indazol-7-yl)piperazin-1-yl)butyl)phenoxy)-2-methylphenyl)picolinic acid], the “Ymin (24 h)” value (24 h) is “B (50% ≤ Ymin < 70%)”. Besides, the DC50 (24 h, read-out: EC50 (24 h)) was below 100 nM.

With `Cc1c(O[C@H]2CC[C@H](CC(=O)N3CCN(c4ccc5c(C6CCC(=O)NC6=O)nn(C)c5c4)CC3)CC2)cccc1-c1ccc(N2CCc3cccc(C(=O)Nc4nc5ccccc5s4)c3C2)nc1C(=O)O` (stereo partly drawn) [Compound 176a, 6-(8-(benzo[d]thiazol-2-ylcarbamoyl)-3,4-dihydroisoquinolin-2(1H)-yl)-3-(3-(((1r,4r)-4-(2-(4-(3-(2,6-dioxopiperidin-3-yl)-1-methyl-1H-indazol-6-yl)piperazin-1-yl)-2-oxoethyl)cyclohexyl)oxy)-2-methylphenyl)picolinic acid], the “Ymin (24 h)” value (24 h) is listed as “B (50% ≤ Ymin < 70%)”. Besides, under “24 h, read-out: EC50 (24 h)”, the DC50 was below 100 nM.
